Test results published in US20220289794A1, “SYNTHETIC ANTIMICROBIAL PEPTIDES” (priority 2019, published 2022).
Values after ≈ are worked out from the molar mass of the structure shown. Like-named read-outs stand apart in the source and are kept apart here. Non-standard residues stand in square brackets, D forms with d. Residues, ends and D or L forms follow the SMILES beside them. Dip = N[C@H](C(=O)O)C(c1ccccc1)c1ccccc1; 2Nal = N[C@@H](Cc1ccc2ccccc2c1)C(=O)O

What was measured:
[1] = tested on: P. aeruginosa (ATCC 10145); experiment: Broad-spectrum activity against Gram-Negative bacteria (MIC); assay type: cell-based; details: Table 16, Gram-negative panel
human red blood cells = tested on: human red blood cells; design: unit not given beside the values
[2] = tested on: Methicillin-resistant Staphylococcus aureus MRSA (ATCC BAA-1556)
[3] = tested on: Escherichia coli (ATCC 25922)
[4] = tested on: Pseudomonas aeruginosa (ATCC 27883)
[5] = tested on: Enterococcus faecalis ATCC 29212; details: E. faecalis ATCC 29212
[6] = tested on: Streptococcus pneumoniae ATCC 49619; details: S. pneumoniae ATCC 49619
B. subtilis (ATCC-6633) = experiment: Broad-spectrum activity against Gram-Positive bacteria (MIC); assay type: cell-based; design: unit not given here
[7] = tested on: Enterococcus faecium ATCC 27270; details: E. faecium ATCC 27270
E. coli (ATCC BAA-2452) = experiment: Broad-spectrum activity against Gram-Negative bacteria (MIC); assay type: cell-based; details: Table 16, Gram-negative panel
B. cereus (ATCC-13061) = experiment: Broad-spectrum activity against Gram-Positive bacteria (MIC); assay type: cell-based; design: unit not given here
[8] = tested on: A. baumannii (ATCC BAA-1605); experiment: Broad-spectrum activity against Gram-Negative bacteria (MIC); assay type: cell-based; details: Table 16, Gram-negative panel
[9] = tested on: Klebsiella pneumoniae ATCC 13883; details: Table 16, Gram-negative panel
[10] = tested on: P. aeruginosa (ATCC BAA-1744); experiment: Broad-spectrum activity against Gram-Negative bacteria (MIC); assay type: cell-based; details: Table 16, Gram-negative panel
[11] = tested on: Enterococcus faecium ATCC 700221; details: E. faecium ATCC 700221
[12] = tested on: Enterococcus faecalis ATCC 51575; details: E. faecalis ATCC 51575
[13] = tested on: Klebsiella pneumoniae (ATCC BAA-1705); details: Table 16, Gram-negative panel
[14] = tested on: Streptococcus pneumoniae ATCC 51938; details: S. pneumoniae ATCC 51938

| Molecule | MIC P. aeruginosa (ATCC 10145) [1] [µg/mL] | HC50 (human red blood cells) | MIC MRSA ATCC BAA-1556 ([2]; ATCC BAA-1556) [µg/mL] | MIC E. coli ATCC 25922 ([3]; ATCC 25922) [µg/mL] | MIC P. aeruginosa ATCC 27883 ([4]; ATCC 27883) [µg/mL] | Broad-spectrum activity E. faecalis (ATCC 29212) [5] | Broad-spectrum activity S. pneumoniae (ATCC 49619) [6] | Broad-spectrum activity B. subtilis (ATCC-6633) (B. subtilis (ATCC-6633)) | MIC S. aureus ATCC 29213 (S. aureus ATCC 29213; ATCC 29213) [µg/mL] | Broad-spectrum activity E. faecium (ATCC 27270) [7] | MIC E. coli (ATCC BAA-2452) (E. coli (ATCC BAA-2452)) [µg/mL] | Broad-spectrum activity B. cereus (ATCC-13061) (B. cereus (ATCC-13061)) | MIC A. baumannii (ATCC BAA-1605) [8] [µg/mL] | MIC K. pneumonia (ATCC 13883) [9] [µg/mL] | MIC P. aeruginosa (ATCC BAA-1744) [10] [µg/mL] | Broad-spectrum activity E. faecium (ATCC 700221) [11] | Broad-spectrum activity E. faecalis (ATCC 51575) [12] | MIC K. pneumonia (ATCC BAA-1705) [13] [µg/mL] | Broad-spectrum activity S. pneumoniae (ATCC 51938) [14] | further results |
| --- | --- | --- | --- | --- | --- | --- | --- | --- | --- | --- | --- | --- | --- | --- | --- | --- | --- | --- | --- | --- |
| N=C(N)NCCC[C@@H]1NC(=O)[C@H](CCCNC(=N)N)NC(=O)[C@H](C(c2ccccc2)c2ccccc2)NC(=O)[C@H](C(c2ccccc2)c2ccccc2)NC(=O)[C@H](C(c2ccccc2)c2ccccc2)NC(=O)[C@H](CCCNC(=N)N)NC1=O [IFX-002, c[Arg-Arg-Arg-Dip-Dip-Dip]] (cyclo([Dip][Dip][Dip]RRR)) | 50 (≈ 43.9 µM) | 205 | 3.1 (≈ 2.72 µM) | 12.5 (≈ 11 µM) | 12.5 (≈ 11 µM) | 12.5 | 50 | 6.2 | 3.1 (≈ 2.72 µM) | 6.2 | 25 (≈ 22 µM) | 12.5 | 25 (≈ 22 µM) | 50 (≈ 43.9 µM) | 25 (≈ 22 µM) | 6.2 | 12.5 | 12.5 (≈ 11 µM) | 25 | – |
| N=C(N)NCCC[C@@H]1NC(=O)[C@H](CCCNC(=N)N)NC(=O)[C@H](CCCNC(=N)N)NC(=O)[C@H](C(c2ccccc2)c2ccccc2)NC(=O)[C@H](C(c2ccccc2)c2ccccc2)NC(=O)[C@H](C(c2ccccc2)c2ccccc2)NC(=O)[C@H](CCCNC(=N)N)NC1=O [IFX-008, c[Arg-Arg-Arg-Arg-Dip-Dip-Dip]] (cyclo(RRRR[Dip][Dip][Dip])) | 25 (≈ 19.3 µM) | 190 | 1.5 (≈ 1.16 µM) | 12.5 (≈ 9.66 µM) | 12.5 (≈ 9.66 µM) | 6.2 | 25 | 1.5 | 1.5 (≈ 1.16 µM) | 3.1 | 6.2 (≈ 4.79 µM) | 6.2 | 12.5 (≈ 9.66 µM) | 50 (≈ 38.6 µM) | 12.5 (≈ 9.66 µM) | 1.5 | 12.5 | 12.5 (≈ 9.66 µM) | 12.5 | – |
| N=C(N)NCCC[C@@H]1NC(=O)[C@H](CCCNC(=N)N)NC(=O)[C@H](C(c2ccccc2)c2ccccc2)NC(=O)[C@H](C(c2ccccc2)c2ccccc2)NC(=O)[C@H](CCCNC(=N)N)NC(=O)[C@H](CCCNC(=N)N)NC(=O)[C@H](C(c2ccccc2)c2ccccc2)NC1=O [IFX-016, c[Arg-Dip-Arg-Arg-Dip-Dip-Arg]] (cyclo(R[Dip]RR[Dip][Dip]R)) | 25 (≈ 19.3 µM) | 310 | 6.2 (≈ 4.79 µM) | >100 | 50 (≈ 38.6 µM) | 6.2 | 25 | 1.5 | 6.2 (≈ 4.79 µM) | 3.1 | 12.5 (≈ 9.66 µM) | 6.2 | 12.5 (≈ 9.66 µM) | 50 (≈ 38.6 µM) | 12.5 (≈ 9.66 µM) | 1.5 | 12.5 | 25 (≈ 19.3 µM) | 12.5 | – |
| N=C(N)NCCC[C@@H]1NC(=O)[C@H](CCCNC(=N)N)NC(=O)[C@H](Cc2ccc3ccccc3c2)NC(=O)[C@H](Cc2ccc3ccccc3c2)NC(=O)[C@H](CCCNC(=N)N)NC(=O)[C@H](CCCNC(=N)N)NC(=O)[C@H](Cc2ccc3ccccc3c2)NC1=O [IFX-018, c[Arg-NaI-Arg-Arg-NaI-NaI-Arg]] (cyclo(R[2Nal]RR[2Nal][2Nal]R)) | 50 (≈ 41.1 µM) | 300 | 6.2 (≈ 5.1 µM) | 25 (≈ 20.6 µM) | >100 | 6.2 | 25 | 1.5 | 6.2 (≈ 5.1 µM) | 1.5 | 12.5 (≈ 10.3 µM) | 3.1 | 6.2 (≈ 5.1 µM) | 50 (≈ 41.1 µM) | 25 (≈ 20.6 µM) | 1.5 | 12.5 | 25 (≈ 20.6 µM) | 12.5 | – |
| N=C(N)NCCC[C@@H]1NC(=O)[C@H](CCCNC(=N)N)NC(=O)[C@H](Cc2ccc3ccccc3c2)NC(=O)[C@H](Cc2ccc3ccccc3c2)NC(=O)[C@H](CCCNC(=N)N)NC(=O)[C@H](CCCNC(=N)N)NC(=O)[C@H](Cc2ccc3ccccc3c2)NC1=O [IFX-019, c[Arg-Arg-NaI-NaI-Arg-Arg-NaI]] (cyclo(R[2Nal]RR[2Nal][2Nal]R)) | 25 (≈ 20.6 µM) | 325 | 6.2 (≈ 5.1 µM) | 50 (≈ 41.1 µM) | 50 (≈ 41.1 µM) | 3.1 | 25 | 1.5 | 6.2 (≈ 5.1 µM) | 1.5 | 6.2 (≈ 5.1 µM) | 1.5 | 12.5 (≈ 10.3 µM) | 50 (≈ 41.1 µM) | 12.5 (≈ 10.3 µM) | 1.5 | 6.2 | 25 (≈ 20.6 µM) | 12.5 | – |
| N=C(N)NCCC[C@@H]1NC(=O)[C@H](CCCNC(=N)N)NC(=O)[C@H](CCCNC(=N)N)NC(=O)[C@H](C(c2ccccc2)c2ccccc2)NC(=O)[C@H](C(c2ccccc2)c2ccccc2)NC(=O)[C@H](Cc2c[nH]c3ccccc23)NC1=O [IFX-020, c[Arg-Arg-Arg-Trp-Dip-Dip]] (cyclo([Dip][Dip]RRRW)) | 25 (≈ 22.7 µM) | 180 | – | – | – | 6.2 | 25 | 1.5 | – | 3.1 | 6.2 (≈ 5.63 µM) | 3.1 | 25 (≈ 22.7 µM) | 50 (≈ 45.4 µM) | 12.5 (≈ 11.3 µM) | 1.5 | 12.5 | 12.5 (≈ 11.3 µM) | 12.5 | – |
| N=C(N)NCCC[C@@H]1NC(=O)[C@H](CCCNC(=N)N)NC(=O)[C@H](C(c2ccccc2)c2ccccc2)NC(=O)[C@H](Cc2c[nH]c3ccccc23)NC(=O)[C@H](C(c2ccccc2)c2ccccc2)NC(=O)[C@H](CCCNC(=N)N)NC1=O [IFX-021, c[Arg-Arg-Arg-Dip-Trp-Dip]] (cyclo([Dip]RRR[Dip]W)) | 50 (≈ 45.4 µM) | 260 | – | – | – | 12.5 | 50 | 3.1 | – | 6.2 | 12.5 (≈ 11.3 µM) | 6.2 | 25 (≈ 22.7 µM) | > 50 | 25 (≈ 22.7 µM) | 3.1 | 12.5 | 12.5 (≈ 11.3 µM) | 25 | – |
| c[arg-arg-arg-arg-dip-trp-dip] [IFX-101] | 50 | – | – | – | – | 12.5 | 50 | 1.5 | – | 3.1 | 25 | 6.2 | 12.5 | > 50 | 25 | 12.5 | 12.5 | 25 | 12.5 | MIC MRSA ATCC BAA-1556 ([2]; MRSA ATCC BAA-1556): 3.1 µg/mL; MIC E. coli ATCC 25922 ([3]; E. coli ATCC 25922): 12.5 µg/mL; MIC P. aeruginosa ATCC 27883 ([4]; P. aeruginosa ATCC 27883): 25 µg/mL; MIC S. aureus ATCC 29213 (S. aureus ATCC 29213; S. aureus ATCC 29213): 3.1 µg/mL |
